These results are taken from patent US10203327B2, “Organic compounds” (Novartis AG, priority 2013, dated 2019).

Where a SMILES comes first, the peptide text is derived from it.

Experiment [1] relates to subjects treated for psoriasis. To be noted: after 4 weeks; cited from earlier work.
The target of experiment [2] is T1, human GPR15 (Homo sapiens, UniProt P49685).
T1 construct: expressed in transfected cells; host or cells: CHO-Aeq (with or without Galpha16), vector pEFIN3
T1 sequence (P49685 1-360): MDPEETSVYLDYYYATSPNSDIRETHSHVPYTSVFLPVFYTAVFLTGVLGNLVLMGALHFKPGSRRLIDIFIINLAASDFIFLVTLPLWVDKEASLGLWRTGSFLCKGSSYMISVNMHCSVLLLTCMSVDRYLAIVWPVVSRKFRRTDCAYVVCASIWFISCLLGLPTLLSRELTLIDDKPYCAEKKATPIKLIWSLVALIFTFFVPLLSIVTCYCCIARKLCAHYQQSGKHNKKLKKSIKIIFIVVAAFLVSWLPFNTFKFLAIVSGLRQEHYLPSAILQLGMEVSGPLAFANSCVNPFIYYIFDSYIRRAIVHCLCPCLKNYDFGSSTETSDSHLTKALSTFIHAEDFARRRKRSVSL
Briefly: Aequorin assay on human GPR15 stably expressed in recombinant cells. The class given is cell-based. From the text: (§1) Throughout this specification, the term “Aequorin assay” refers to methods for performing high throughput functional screening of GPCRs. Said methods employ recombinant cell lines stably transfected with plasmids encoding apoaequorin, a GPCR of interest and if necessary, a recombinant G protein to redirect the coupling of the GPCR toward calcium signaling. After clonal selection, the best clones are selected on the basis of pharmacological characterization, high signal to background ratio and stability of expression. This method has been developed by Euroscreen SA, 47 Rue Adrienne Bolland, 6041 Gosselies, Belgium.
(§2) Plasmids encoding human and mouse GPR15 were stably transfected in CHO, 1321 N1 and HEK293 cells expressing the apoaequorin (CHO-Aeq, 1321-N1-Aeq and HEK-Aeq). GPR15 mRNA sequence integrities were checked using RT-PCR at T0 and T30 culture times in CHO cells.
An hGPR15 CHO-Gα16Aeq cell line was used for the Aequorin screening of Euroscreen proprietary libraries of natural ligands and tissue extracts collection. Specific activation of GPR15 over more than 20 other orphan GPCRs was identified in fractions from a colon aqueous extract.
(§3) QKPQLWVVPGALPQV peptide (SEQ ID NO: 2), corresponding to a putative tryptic C-term fragment (43-57) of the porcine peptide, was first synthesised for GPR15 evaluation.
(§4) Both peptides (i.e., those produced via CHO production and in vitro production in the agglutinin wheat germ extract system) were tested for GPR15 activation using Aequorin dose response curves.

The test system of experiment [3] is SW48 cells. Briefly: Intracellular calcium in SW48 colon cancer cells. As to conditions: after priming. The experiment is classed as cell-based, human. For orientation: A change in cytosolic calcium serves as a functional read-out for many receptors and channels.
Experiment [4] deals with human neonatal dermal fibroblasts. In words: IP-10 (CXCL10) release from human neonatal dermal fibroblasts. The experiment is classed as cell-based. To be noted: GPR15-independent. From the text:
GPR15L action is also mediated by a GPR15-independent mechanism in human neonatal dermal fibroblasts. […] Interferon gamma-induced protein 10 (IP-10), also known as C—X—C motif chemokine 10 (CXCL10), is secreted by monocytes, endothelial cells, and fibroblasts in response to IFN-γ. CXCL10 binds to the cell surface chemokine receptor CXCR3 and is implicated in such processes as chemoattraction for monocytes/macrophages, T cells, NK cells, and dendritic cells, promotion of T cell adhesion to endothelial cells, antitumor activity, and inhibition of bone marrow colony formation and angiogenesis.

The next experiment concerns the target T2, human GPR23 (Homo sapiens, UniProt Q99677).
T2 construct: expressed in transfected cells; host or cells: CHO-Aeq Galpha16
Briefly: Aequorin assay on unrelated receptor hGPR23 (selectivity). To be noted: CHO-Aeq cells expressing hGPR23. The experiment is classed as cell-based.
From the text: as §1, §3, §4

In experiment [5] the test system is SW48 cells. Briefly: Forskolin-induced cAMP in SW48 colon cancer cells. The experiment is classed as cell-based, human. To be noted: pertussis toxin sensitive.
Experiment [6] addresses T1, human GPR15. In words: cAMP HTRF assay on CHO and HEK cells stably expressing hGPR15. The experiment is classed as cell-based. On the technique in general: TR-FRET usually uses a lanthanide donor and a delayed reading to cut background.
The target of a further experiment is T3, human GPRC5C (Homo sapiens, UniProt Q9NQ84).
T3 construct: expressed in transfected cells; host or cells: CHO-Aeq Galpha16
T3 sequence (Q9NQ84 24-441): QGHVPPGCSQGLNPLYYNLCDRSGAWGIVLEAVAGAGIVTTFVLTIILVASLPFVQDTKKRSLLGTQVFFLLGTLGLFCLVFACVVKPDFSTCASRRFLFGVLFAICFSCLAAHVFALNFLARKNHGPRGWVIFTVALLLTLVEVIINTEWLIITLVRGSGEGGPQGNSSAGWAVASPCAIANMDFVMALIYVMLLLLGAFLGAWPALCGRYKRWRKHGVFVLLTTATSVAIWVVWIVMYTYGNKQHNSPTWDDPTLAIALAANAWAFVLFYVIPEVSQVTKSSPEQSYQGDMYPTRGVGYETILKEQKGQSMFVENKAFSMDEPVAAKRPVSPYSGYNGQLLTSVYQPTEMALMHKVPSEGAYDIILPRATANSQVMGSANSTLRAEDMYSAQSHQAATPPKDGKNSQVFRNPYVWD
In words: Aequorin assay on unrelated receptor GPRC5C (selectivity). The class given is cell-based. As to conditions: CHO-Aeq cells expressing GPRC5C.

A further experiment deals with T4, mouse GPR15 (Mus musculus, UniProt Q0VDU3).
T4 construct: expressed in transfected cells; host or cells: CHO-Aeq (with or without Galpha16), vector pEFIN5
T4 sequence (Q0VDU3 1-360): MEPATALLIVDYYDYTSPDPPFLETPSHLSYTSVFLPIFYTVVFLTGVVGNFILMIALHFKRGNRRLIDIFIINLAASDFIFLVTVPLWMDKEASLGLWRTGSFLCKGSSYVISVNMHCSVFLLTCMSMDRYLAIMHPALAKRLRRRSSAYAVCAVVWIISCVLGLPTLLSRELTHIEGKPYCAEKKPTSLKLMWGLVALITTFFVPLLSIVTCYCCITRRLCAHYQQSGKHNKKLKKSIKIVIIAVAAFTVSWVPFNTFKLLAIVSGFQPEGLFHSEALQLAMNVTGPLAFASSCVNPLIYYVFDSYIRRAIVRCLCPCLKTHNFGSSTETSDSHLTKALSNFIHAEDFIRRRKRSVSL
Briefly: Aequorin assay on mouse GPR15 stably expressed in CHO-Aeq cells. The class given is cell-based. As to conditions: CHO and IV produced polypeptide.
From the text: as §1, §2, §3

T2 sequence (Q99677 whole entry): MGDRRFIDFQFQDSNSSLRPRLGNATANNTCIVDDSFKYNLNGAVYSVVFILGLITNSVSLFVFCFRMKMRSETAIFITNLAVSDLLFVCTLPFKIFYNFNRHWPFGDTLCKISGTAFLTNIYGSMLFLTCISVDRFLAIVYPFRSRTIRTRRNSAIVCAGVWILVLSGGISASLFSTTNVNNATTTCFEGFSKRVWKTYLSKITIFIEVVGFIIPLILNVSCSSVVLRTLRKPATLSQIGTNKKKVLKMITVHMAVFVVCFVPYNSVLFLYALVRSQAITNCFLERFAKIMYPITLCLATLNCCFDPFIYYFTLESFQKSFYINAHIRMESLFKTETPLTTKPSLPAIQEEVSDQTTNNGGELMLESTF

Turning to “secukinumab: fully human monoclonal antibody that selectively binds to and neutralizes IL-17A”, in [1], the “c10orf99 mRNA” value is on record as “significant decrease”; the “reduction in the Psoriasis Area and Severity Index (PAST)” value was 58%.

For “KRRPAKAWSGRRTRLCCHRVPSPNSTNLKGHHVRLCKPCK LEPEPRLWVVPGALPQV (KRRPAKAWSGRRTRLCCHRVPSPNSTNLKGHHVRLCKPCKLEPEPRLWVVPGALPQV) [c10orf99, made by CHO production, in vitro translation or synthesis]”, the “activation of hGPR15” value with human GPR15 [2] (CHO-Aeq cells, ligand from CHO production or IV preparation) is “specifically activated”. In the experiment with human GPR15 [2] (stably transfected HEK-Aeq Gα16 cells), the “activation of hGPR15 in HEK-Aeq Gα16 cells” value is given as “confirmed”. The intracellular calcium levels result in the experiment on SW48 cells [3] is “dose response dependent increase in intracellular calcium levels”. For the same compound, in experiment [4], the IP-10 release result is “induces IP-10-release”. In addition, the “calcium/luminescence response of hGPR23 cells” value with human GPR23 is on record as “failed to induce any calcium signal”. The “forskolin-induced cAMP elevation” value with SW48 cells [5] was “pertussis toxin sensitive decrease in forskolin-induced cAMP elevation”. In addition, the “activation of hGPR15 (cAMP HTRF assay)” value in the experiment with human GPR15 [6] is listed as “activation”. Besides, the “calcium signal on GPRC5C” value in the experiment with human GPRC5C is “failed to induce any calcium signal”. Besides, the “activation of mouse GPR15 receptor” value with mouse GPR15 is given as “Activation of mouse GPR15 receptor was observed”.

For `CC(C)C[C@H](NC(=O)[C@H](CCC(N)=O)NC(=O)[C@@H]1CCCN1C(=O)[C@H](CCCCN)NC(=O)[C@@H](N)CCC(N)=O)C(=O)N[C@@H](Cc1c[nH]c2ccccc12)C(=O)N[C@H](C(=O)N[C@H](C(=O)N1CCC[C@H]1C(=O)NCC(=O)N[C@@H](C)C(=O)N[C@@H](CC(C)C)C(=O)N1CCC[C@H]1C(=O)N[C@@H](CCC(N)=O)C(=O)N[C@H](C(=O)O)C(C)C)C(C)C)C(C)C` [QKPQLWVVPGALPQV peptide, QKPQLWVVPGALPQV] (H-QKPQLWVVPGALPQV-OH; N-terminus and C-terminus assumed), the “activation of hGPR15 CHO cell line” value on human GPR15 [2] (hGPR15 CHO cell line, compared with EC50 of ~2 μM) is given as “same affinity”. Moreover, the “calcium/luminescence response of hGPR23 cells” value on human GPR23 is listed as “failed in responding”.
